Here are results for 9 molecules from paper PMC3292553, “Flavonoid Glycosides Isolated from Unique Legume Plant Extracts as Novel Inhibitors of Xanthine Oxidase” (PLoS ONE, 2012).

The assay deals with T1, Xanthine oxidase from bovine milk (Bos taurus, UniProt P80457).
T1 construct: Xanthine oxidase from bovine milk and allopurinol were purchased from Sigma-Aldrich; purchased Sigma-Aldrich (St Louis MO, USA); host or cells: bovine milk (natural source)
The assay is described as follows: Assessment of XO activity (formation of uric acid from xanthine, 295 nm). The class given is biochemical. Particulars: pure compounds; for Inhibition type: kinetic analysis; for Ki: kinetic analysis (Lineweaver-Burk, Grafit 6); for IC50: XO inhibition.

A word on the Ki: it is the equilibrium dissociation constant of an inhibitor or competing ligand from its target. High values mean a looser hold on the target, low ones a stronger hold on the target. Usually IC50 stands for the concentration needed to halve the response being measured. A higher IC50 goes with lower potency.

T1 sequence (P80457 whole entry): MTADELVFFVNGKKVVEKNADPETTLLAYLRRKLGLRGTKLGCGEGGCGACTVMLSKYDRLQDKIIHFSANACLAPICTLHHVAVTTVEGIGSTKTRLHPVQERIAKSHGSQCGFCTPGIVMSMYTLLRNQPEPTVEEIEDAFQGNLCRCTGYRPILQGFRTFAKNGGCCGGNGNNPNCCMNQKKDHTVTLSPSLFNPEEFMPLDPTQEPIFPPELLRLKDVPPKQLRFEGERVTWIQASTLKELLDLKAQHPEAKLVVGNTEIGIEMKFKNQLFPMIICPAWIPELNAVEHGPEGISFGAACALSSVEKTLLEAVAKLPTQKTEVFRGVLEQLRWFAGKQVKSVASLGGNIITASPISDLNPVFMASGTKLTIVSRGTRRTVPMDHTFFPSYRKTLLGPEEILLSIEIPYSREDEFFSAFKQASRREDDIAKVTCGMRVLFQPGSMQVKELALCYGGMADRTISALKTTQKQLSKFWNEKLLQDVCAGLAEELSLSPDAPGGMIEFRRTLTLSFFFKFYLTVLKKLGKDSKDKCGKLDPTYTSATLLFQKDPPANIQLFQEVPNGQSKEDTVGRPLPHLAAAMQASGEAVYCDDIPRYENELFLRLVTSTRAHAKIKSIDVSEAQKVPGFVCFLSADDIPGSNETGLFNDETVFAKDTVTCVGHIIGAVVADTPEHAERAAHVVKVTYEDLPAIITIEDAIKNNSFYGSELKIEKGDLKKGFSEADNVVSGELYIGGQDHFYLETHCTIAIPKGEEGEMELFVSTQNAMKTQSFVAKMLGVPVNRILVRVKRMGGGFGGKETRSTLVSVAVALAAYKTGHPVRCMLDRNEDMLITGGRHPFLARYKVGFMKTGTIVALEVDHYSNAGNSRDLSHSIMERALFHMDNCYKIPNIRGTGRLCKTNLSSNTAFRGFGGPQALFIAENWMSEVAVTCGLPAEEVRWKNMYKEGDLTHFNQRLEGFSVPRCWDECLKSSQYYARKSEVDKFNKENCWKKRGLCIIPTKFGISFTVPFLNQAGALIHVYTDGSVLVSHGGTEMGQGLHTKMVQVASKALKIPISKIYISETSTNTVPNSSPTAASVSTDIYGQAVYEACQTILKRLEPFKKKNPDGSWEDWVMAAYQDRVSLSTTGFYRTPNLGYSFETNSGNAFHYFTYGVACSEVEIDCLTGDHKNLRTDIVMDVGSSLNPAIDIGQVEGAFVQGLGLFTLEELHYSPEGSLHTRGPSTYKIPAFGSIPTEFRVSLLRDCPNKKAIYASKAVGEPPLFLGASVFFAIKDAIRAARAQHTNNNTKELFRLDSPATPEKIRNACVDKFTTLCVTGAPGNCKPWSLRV
Description: XO activity was determined by measuring the formation of uric acid from xanthine within a set time. Changes in the levels of uric acid produced through the presence of the test samples allow the potency of inhibitors to be assessed. Initially the effect of the polyphenolic fractions and compounds on the inhibition of enzymatic activity was assessed at substrate concentration where maximum velocity was obtained. All initial reaction rates were in the linear scale and were measured over the first 4 min of the reaction. Each assay was performed in triplicates and the optical density was measured using a Hitachi U-1500 Spectrophotometer (San Jose, USA). […] The reaction was initiated through the addition of 43 mU unit of XO diluted in H2O. […] Control samples were prepared identically to the test samples without the addition of the specimen.
The measured absorbance was corrected for the contribution of the tested fractions and the pure polyphenolic compounds.
Statistical computations were carried out using SPSS 13.0 software. For statistical analysis, one-way ANOVA was applied followed by Dunnett's test for multiple pair-wise comparisons. Differences were considered significant at p<0.05. The steady state kinetic parameters (Km and Vmax) were determined (under standard assays conditions) by analyzing formation of uric acid from xanthine under initial rate conditions using the Lineweaver-Burk linearization of the Micaelis-Menten equation. The Ki values and the apparent kinetic parameters Km and Vmax were analyzed with the statistic package Grafit 6 (Erithacus Software, Ltd., Horley, UK).

In the case of `Oc1ncnc2[nH]ncc12` [Allopurinol, 4-hydroxypyrazolo (3,4-d) pyrimidine, reference compound], the Inhibition type entry is “Competitive”.
In the case of `CC1OC(Oc2cc(O)c3c(=O)c(OC4OC(CO)C(O)C(O)C4OC4OC(C)C(O)C(O)C4O)c(-c4ccc(O)c(O)c4)oc3c2)C(O)C(O)C1O` [Compound 1, Quercetin 3-O-[α-L-rhamnopyranosyl(1→2)-β-D-galactopyranosyl]-7-O-α-L-rhamnopyranoside], the Inhibition type entry was “Non competitive” and the affinity, expressed as Ki, was 115 µM.
Consider `CC1OC(Oc2cc(O)c3c(=O)c(OC4OC(CO)C(O)C(O)C4OC4OC(C)C(O)C(O)C4O)c(-c4ccc(O)c(O)c4)oc3c2)C(O)C(O)C1O` [Compound 2, Quercetin 3-O[α-L-rhamnopyranosyl(1→2)-β-D-glucopyranosyl]-7-O-α-L-rhamnopyranoside], for which the Ki is 186 µM.
In the case of `CC1=CC(=O)CC(C)(C)C1(O)C=CC(C)OC1OC(CO)C(O)C(O)C1O` [Compound 3, (6S,9R)-Roseoside], the Inhibition type entry was “Non competitive” and the Ki amounted to 767 µM.
`CC1OC(Oc2cc(O)c3c(=O)c(OC4OC(CO)C(O)C(O)C4OC4OC(C)C(O)C(O)C4O)c(-c4ccc(O)cc4)oc3c2)C(O)C(O)C1O` [Compound 4a, Kaempferol 3-O-[α-L-rhamnopyranosyl(1→2)-β-D-glucopyranosyl]-7-O-α-L-rhamnopyranoside]: the Inhibition type result is recorded as “Non competitive” and the Ki is 651 µM.
The molecule `CC1OC(Oc2cc(O)c3c(=O)c(OC4OC(CO)C(O)C(O)C4OC4OC(C)C(O)C(O)C4O)c(-c4ccc(O)cc4)oc3c2)C(O)C(O)C1O` [Compound 4b, Kaempferol 3-O-[α-L-rhamnopyranosyl(1→2)-β-D-galactopyranosyl]-7-O-α-L-rhamnopyranoside] came in with a Ki of 50 µM.
As to `CC1OC(Oc2cc(O)c3c(=O)c(OC4OC(CO)C(O)C(O)C4O)c(-c4ccc(O)cc4)oc3c2)C(O)C(O)C1O` [Compound 5, Kaempferol 3-O-β-D-galactopyranosyl-7-O-α-L-rhamnopyranoside], the Inhibition type result is “Non competitive” and the Ki came to 345 µM.
With `CC1OC(Oc2cc(O)c3c(=O)c(OC4OCC(O)C(O)C4O)c(-c4ccc(O)cc4)oc3c2)C(O)C(O)C1O` [Compound 9, Kaempferol 3-O-α-L-arabinopyranosyl-7-O-α-L-rhamnopyranoside], inhibition was half-maximal at 112 µM (IC50), the Inhibition type result is recorded as “Non competitive” and the Ki is 210 µM.
For `CC1OC(Oc2cc(O)c3c(=O)c(OC4OC(CO)C(O)C(O)C4O)c(-c4ccc(O)cc4)oc3c2)C(O)C(O)C1O` [Compound 10, Kaempferol 3-O-β-D-glucopyranosyl-7-O-α-L-rhamnopyranoside], in that order: 70.6 µM, “Non competitive” and 177 µM.
